Laboratory results taken from ChEMBL document CHEMBL1136143, “Synthesis and activity of novel benzoxazole derivatives of mannopeptimycin glycopeptide antibiotics” (2003).
≈ marks a conversion by molar mass, not a printed value.

How the values were obtained:
Type in all cases: functional
[1] = test system: Enterococcus sp.; test: In vitro minimum inhibitory concentration against Enterococcus species (11 strains, including VRE)
[2] = test system: Streptococcus; test: In vitro minimum inhibitory concentration against Streptococcus Species (5 strains, including PRSP)
[3] = test system: Staphylococcus aureus; test: In vitro minimum inhibitory concentration against Staphylococcus aureus (10strains, including MRSA)

Row | Structure (SMILES) | MIC [1] | MIC [2] | MIC [3]
1 | CN[C@H](CC(C)C)C(=O)N[C@H]1C(=O)N[C@@H](CC(N)=O)C(=O)N[C@H]2C(=O)N[C@H]3C(=O)N[C@H](C(=O)N[C@H](C(=O)O)c4cc(O)cc(O)c4-c4cc3ccc4O)[C@H](O)c3ccc(c(Cl)c3)Oc3cc2cc(c3O[C@@H]2O[C@H](CO)[C@@H](O)[C@H](O)[C@H]2O[C@H]2C[C@](C)(N)[C@H](O)[C@H](C)O2)Oc2ccc(cc2Cl)[C@H]1O [VANCOMYCIN] | 5 µg/mL (≈ 3.45 µM) | 0.25 µg/mL (≈ 0.173 µM) | 
2 | C[C@@H](c1ccccc1)[C@@H]1NC(=O)CNC(=O)[C@H](CO)NC(=O)[C@@H]([C@@H](O)[C@@H]2CN=C(N)N2[C@H]2O[C@H](CO)[C@@H](O)[C@H](O)[C@@H]2O)NC(=O)[C@H]([C@H](O)[C@@H]2CN=C(N)N2)NC(=O)[C@@H](Cc2ccc3nc(NC4O[C@@H](OC(=O)c5ccccc5)[C@H](OC(=O)c5ccccc5)[C@@H](OC(=O)c5ccccc5)[C@@H]4COC(=O)c4ccccc4)oc3c2)NC1=O (stereo partly specified) | 4 µg/mL (≈ 2.52 µM) | 4 µg/mL (≈ 2.52 µM) | 32 µg/mL (≈ 20.1 µM)
3 | C[C@@H](c1ccccc1)[C@@H]1NC(=O)CNC(=O)[C@H](CO)NC(=O)[C@@H]([C@@H](O)[C@@H]2CN=C(N)N2[C@H]2O[C@H](CO)[C@@H](O)[C@H](O)[C@@H]2O)NC(=O)[C@H]([C@H](O)[C@@H]2CN=C(N)N2)NC(=O)[C@@H](Cc2ccc3nc(C=C(c4ccccc4)c4ccccc4)oc3c2)NC1=O | 8 µg/mL (≈ 6.81 µM) | 4 µg/mL (≈ 3.41 µM) | 8 µg/mL (≈ 6.81 µM)
4 | C[C@@H](c1ccccc1)[C@@H]1NC(=O)CNC(=O)[C@H](CO)NC(=O)[C@@H]([C@@H](O)[C@@H]2CN=C(N)N2[C@H]2O[C@H](CO)[C@@H](O)[C@H](O)[C@@H]2O)NC(=O)[C@H]([C@H](O)[C@@H]2CN=C(N)N2)NC(=O)[C@@H](Cc2ccc3nc(-c4cccc(C(C)(C)C)c4)oc3c2)NC1=O | 8 µg/mL (≈ 7.09 µM) | 8 µg/mL (≈ 7.09 µM) | 16 µg/mL (≈ 14.2 µM)
5 | COc1cc(-c2nc3ccc(C[C@H]4NC(=O)[C@H]([C@@H](C)c5ccccc5)NC(=O)CNC(=O)[C@H](CO)NC(=O)[C@@H]([C@@H](O)[C@@H]5CN=C(N)N5[C@H]5O[C@H](CO)[C@@H](O)[C@H](O)[C@@H]5O)NC(=O)[C@H]([C@H](O)[C@@H]5CN=C(N)N5)NC4=O)cc3o2)cc(OC)c1OC | 8 µg/mL (≈ 6.88 µM) | 8 µg/mL (≈ 6.88 µM) | 8 µg/mL (≈ 6.88 µM)
6 | C[C@@H](c1ccccc1)[C@@H]1NC(=O)CNC(=O)[C@H](CO)NC(=O)[C@@H]([C@@H](O)[C@@H]2CN=C(N)N2)NC(=O)[C@H]([C@H](O)[C@@H]2CN=C(N)N2)NC(=O)[C@@H](Cc2ccc3nc(-c4ccccc4)oc3c2)NC1=O | 32 µg/mL (≈ 35.2 µM) | 32 µg/mL (≈ 35.2 µM) | 32 µg/mL (≈ 35.2 µM)
7 | CC(C)=Cc1nc2ccc(C[C@H]3NC(=O)[C@H]([C@@H](C)c4ccccc4)NC(=O)CNC(=O)[C@H](CO)NC(=O)[C@@H]([C@@H](O)[C@@H]4CN=C(N)N4[C@H]4O[C@H](CO)[C@@H](O)[C@H](O)[C@@H]4O)NC(=O)[C@H]([C@H](O)[C@@H]4CN=C(N)N4)NC3=O)cc2o1 | 16 µg/mL (≈ 15.2 µM) | 32 µg/mL (≈ 30.5 µM) | 32 µg/mL (≈ 30.5 µM)
8 | C[C@@H](c1ccccc1)[C@@H]1NC(=O)CNC(=O)[C@H](CO)NC(=O)[C@@H]([C@@H](O)[C@@H]2CN=C(N)N2[C@H]2O[C@H](CO)[C@@H](O)[C@H](O)[C@@H]2O)NC(=O)[C@H]([C@H](O)[C@@H]2CN=C(N)N2)NC(=O)[C@@H](Cc2ccc3nc(SCC(=O)c4ccccc4)oc3c2)NC1=O | 4 µg/mL (≈ 3.49 µM) | 8 µg/mL (≈ 6.98 µM) | 8 µg/mL (≈ 6.98 µM)
9 | C[C@@H](c1ccccc1)[C@@H]1NC(=O)CNC(=O)[C@H](CO)NC(=O)[C@@H]([C@@H](O)[C@@H]2CN=C(N)N2[C@H]2O[C@H](CO)[C@@H](O)[C@H](O)[C@@H]2O)NC(=O)[C@H]([C@H](O)[C@@H]2CN=C(N)N2)NC(=O)[C@@H](Cc2ccc3nc(-c4ccccc4OC4O[C@H](CO)[C@@H](O)[C@H](O)[C@H]4O)oc3c2)NC1=O (stereo partly specified) | 128 µg/mL (≈ 102 µM) | 128 µg/mL (≈ 102 µM) | > 128 µg/mL

Next, values leading:

Row | MIC [1] | MIC [2] | MIC [3] | Structure (SMILES)
10 | 4 µg/mL (≈ 3.48 µM) | 16 µg/mL (≈ 13.9 µM) | 4 µg/mL (≈ 3.48 µM) | C[C@@H](c1ccccc1)[C@@H]1NC(=O)CNC(=O)[C@H](CO)NC(=O)[C@@H]([C@@H](O)[C@@H]2CN=C(N)N2[C@H]2O[C@H](CO)[C@@H](O)[C@H](O)[C@@H]2O)NC(=O)[C@H]([C@H](O)[C@@H]2CN=C(N)N2)NC(=O)[C@@H](Cc2ccc3nc(-c4ccc(-c5ccccc5)cc4)oc3c2)NC1=O
11 | 2 µg/mL (≈ 1.67 µM) | 2 µg/mL (≈ 1.67 µM) | 8 µg/mL (≈ 6.7 µM) | C[C@@H](c1ccccc1)[C@@H]1NC(=O)CNC(=O)[C@H](CO)NC(=O)[C@@H]([C@@H](O)[C@@H]2CN=C(N)N2[C@H]2O[C@H](CO)[C@@H](O)[C@H](O)[C@@H]2O)NC(=O)[C@H]([C@H](O)[C@@H]2CN=C(N)N2)NC(=O)[C@@H](Cc2ccc3nc(SCc4ccc(-c5ccccc5)cc4)oc3c2)NC1=O
12 | 2 µg/mL (≈ 1.77 µM) | 8 µg/mL (≈ 7.09 µM) | 2 µg/mL (≈ 1.77 µM) | C[C@@H](c1ccccc1)[C@@H]1NC(=O)CNC(=O)[C@H](CO)NC(=O)[C@@H]([C@@H](O)[C@@H]2CN=C(N)N2[C@H]2O[C@H](CO)[C@@H](O)[C@H](O)[C@@H]2O)NC(=O)[C@H]([C@H](O)[C@@H]2CN=C(N)N2)NC(=O)[C@@H](Cc2ccc3nc(-c4ccc(C(C)(C)C)cc4)oc3c2)NC1=O
13 | 128 µg/mL (≈ 115 µM) | 128 µg/mL (≈ 115 µM) | > 128 µg/mL | C[C@@H](c1ccccc1)[C@@H]1NC(=O)CNC(=O)[C@H](CO)NC(=O)[C@@H]([C@@H](O)[C@@H]2CN=C(N)N2[C@H]2O[C@H](CO)[C@@H](O)[C@H](O)[C@@H]2O)NC(=O)[C@H]([C@H](O)[C@@H]2CN=C(N)N2)NC(=O)[C@@H](Cc2ccc3nc(-c4ccc(C(=O)O)cc4)oc3c2)NC1=O
14 | 8 µg/mL (≈ 6.95 µM) | 4 µg/mL (≈ 3.48 µM) | 8 µg/mL (≈ 6.95 µM) | C[C@@H](c1ccccc1)[C@@H]1NC(=O)CNC(=O)[C@H](CO)NC(=O)[C@@H]([C@@H](O)[C@@H]2CN=C(N)N2[C@H]2O[C@H](CO)[C@@H](O)[C@H](O)[C@@H]2O)NC(=O)[C@H]([C@H](O)[C@@H]2CN=C(N)N2)NC(=O)[C@@H](Cc2ccc3nc(-c4ccc(Br)cc4)oc3c2)NC1=O
15 | 4 µg/mL (≈ 3.39 µM) | 8 µg/mL (≈ 6.79 µM) | 8 µg/mL (≈ 6.79 µM) | C[C@@H](c1ccccc1)[C@@H]1NC(=O)CNC(=O)[C@H](CO)NC(=O)[C@@H]([C@@H](O)[C@@H]2CN=C(N)N2[C@H]2O[C@H](CO)[C@@H](O)[C@H](O)[C@@H]2O)NC(=O)[C@H]([C@H](O)[C@@H]2CN=C(N)N2)NC(=O)[C@@H](Cc2ccc3nc(-c4ccc(OCc5ccccc5)cc4)oc3c2)NC1=O
16 | 32 µg/mL (≈ 30.1 µM) | 32 µg/mL (≈ 30.1 µM) | 6 µg/mL (≈ 5.65 µM) | C[C@@H](c1ccccc1)[C@@H]1NC(=O)CNC(=O)[C@H](CO)NC(=O)[C@@H]([C@@H](O)[C@@H]2CN=C(N)N2[C@H]2O[C@H](CO)[C@@H](O)[C@H](O)[C@@H]2O)NC(=O)[C@H]([C@H](O)[C@@H]2CN=C(N)N2)NC(=O)[C@@H](Cc2ccc3nc(-c4ccco4)oc3c2)NC1=O
17 | 4 µg/mL (≈ 3.58 µM) | 4 µg/mL (≈ 3.58 µM) | 4 µg/mL (≈ 3.58 µM) | C[C@@H](c1ccccc1)[C@@H]1NC(=O)CNC(=O)[C@H](CO)NC(=O)[C@@H]([C@@H](O)[C@@H]2CN=C(N)N2[C@H]2O[C@H](CO)[C@@H](O)[C@H](O)[C@@H]2O)NC(=O)[C@H]([C@H](O)[C@@H]2CN=C(N)N2)NC(=O)[C@@H](Cc2ccc3nc(SCc4ccccc4)oc3c2)NC1=O
18 | 16 µg/mL (≈ 14.8 µM) | 16 µg/mL (≈ 14.8 µM) | 8 µg/mL (≈ 7.42 µM) | C[C@@H](c1ccccc1)[C@@H]1NC(=O)CNC(=O)[C@H](CO)NC(=O)[C@@H]([C@@H](O)[C@@H]2CN=C(N)N2[C@H]2O[C@H](CO)[C@@H](O)[C@H](O)[C@@H]2O)NC(=O)[C@H]([C@H](O)[C@@H]2CN=C(N)N2)NC(=O)[C@@H](Cc2ccc3nc(-c4cccs4)oc3c2)NC1=O
19 | 4 µg/mL (≈ 3.45 µM) | 4 µg/mL (≈ 3.45 µM) | 8 µg/mL (≈ 6.9 µM) | C[C@@H](c1ccccc1)[C@@H]1NC(=O)CNC(=O)[C@H](CO)NC(=O)[C@@H]([C@@H](O)[C@@H]2CN=C(N)N2[C@H]2O[C@H](CO)[C@@H](O)[C@H](O)[C@@H]2O)NC(=O)[C@H]([C@H](O)[C@@H]2CN=C(N)N2)NC(=O)[C@@H](Cc2ccc3nc(-c4ccc5c(c4)-c4ccccc4C5)oc3c2)NC1=O
